Data on seven compounds can be found in ChEMBL document CHEMBL1201862, “PubChem BioAssay data set” (2004).

Structures are written as SMILES.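 Method: 48-hour compound exposure of cells in 96-well plates, five concentrations, linear interpolation of endpoints. GI50 is the concentration that inhibits growth by half.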 Activity calls are given as the source filed them. Rule as the data show it: active = GI50 up to about 1.1 µM and inactive = higher.

Some test systems named below: NCI-H226; DU-145; HOP-92; MDA-MB-435; OVCAR-4; SK-MEL-5; K562; NCI-H522; OVCAR-3; NCI/ADR-RES; HL-60; UACC-257; HCT-116; A549; HOP-62; SF-539; EKVX; A498; OVCAR-5; COLO 205.
Assay in all cases: growth of human tumour cells (NCI), 48 h

In the case of `CN(CCCNC(=O)c1nn(-c2ccccc2)c2c1ccc1ccccc12)CCCNC(=O)c1nn(-c2ccccc2)c2c1ccc1ccccc12`, the GI50 in the assay on NCI-H226 was 2.08 µM (inactive); in the assay with DU-145 it was 1.91 µM (inactive); in the assay on HOP-92, 1.83 µM (inactive); in the assay with MDA-MB-435 it was 1.75 µM (inactive); in the assay on OVCAR-4 it was 1.82 µM (inactive); with SK-MEL-5, 1.77 µM (inactive). The GI50 was 1.29 µM (inactive) in the assay with K562; 1.79 µM (inactive) with NCI-H522; 1.5 µM (inactive) in the assay on OVCAR-3; 1.8 µM (inactive) in the assay on NCI/ADR-RES; 0.221 µM (active) in the assay with HL-60; 1.98 µM (inactive) in the assay on UACC-257. Also, the GI50 was 1.82 µM (inactive) in the assay on HCT-116; 1.84 µM (inactive) in the assay with A549; 1.86 µM (inactive) with HOP-62; 1.96 µM (inactive) with SF-539; 1.81 µM (inactive) in the assay with EKVX; 1.65 µM (inactive) with A498. In addition, the GI50 was 2.3 µM (inactive) in the assay on OVCAR-5 and 1.65 µM (inactive) in the assay on COLO 205.

As for `COc1cc2c(cc1OC)CC1c3cc(OC)c(OC)cc3CCN1CC2` (stereo not given), the GI50 with NCI-H226 is 19.6 µM (inactive); with DU-145, > 100 µM (inactive); with HOP-92, 69.3 µM (inactive); with MDA-MB-435, 40.3 µM (inactive); in the assay with OVCAR-4, > 100 µM (inactive); in the assay on SK-MEL-5 it was 30.8 µM (inactive). Besides, the GI50 in the assay on K562 is 89.7 µM (inactive); in the assay with NCI-H522, > 100 µM (inactive); in the assay on OVCAR-3 it was > 100 µM (inactive); with NCI/ADR-RES, 63.2 µM (inactive); in the assay with HL-60, 10.6 µM (inactive); with UACC-257 it was > 100 µM (inactive). Besides, the GI50 was 26.3 µM (inactive) with HCT-116; > 100 µM (inactive) in the assay on A549; > 100 µM (inactive) with HOP-62; 58.7 µM (inactive) in the assay with SF-539; > 100 µM (inactive) with EKVX; > 100 µM (inactive) in the assay on A498. Besides, the GI50 in the assay on OVCAR-5 and in the assay with COLO 205 was > 100 µM (inactive) in each case.

Consider `C=C(C)C(=O)OC1C(C(C)CCCO)=C(CO)CC2OC(=O)C(=C)C21` (stereo not given), for which the GI50 was 37.9 µM (inactive) with NCI-H226; 14.6 µM (inactive) in the assay with DU-145; 16.7 µM (inactive) in the assay with HOP-92; 19.9 µM (inactive) with MDA-MB-435; 28.1 µM (inactive) with OVCAR-4; 14 µM (inactive) in the assay on SK-MEL-5. For the same compound, the GI50 in the assay with K562 is 15.2 µM (inactive); with NCI-H522, 3.44 µM (inactive); in the assay with OVCAR-3, 17.6 µM (inactive); in the assay on NCI/ADR-RES, 33.5 µM (inactive); in the assay on HL-60, 6.41 µM (inactive); in the assay on UACC-257, 17.1 µM (inactive). Moreover, the GI50 in the assay with HCT-116 was 14.6 µM (inactive); in the assay on A549 it was 23.2 µM (inactive); with HOP-62, 26.5 µM (inactive); in the assay on SF-539 it was 23 µM (inactive); in the assay on EKVX it was 24.6 µM (inactive); in the assay with A498, 17.1 µM (inactive). Moreover, the GI50 with OVCAR-5 is 22.1 µM (inactive); with COLO 205 it was 15.1 µM (inactive).

Regarding `C=CCNC(=O)NNC(O)(C(=O)OCC)C(F)(F)F` (stereo not given), the GI50 in the assay on NCI-H226, in the assay with DU-145, in the assay with HOP-92, in the assay with MDA-MB-435, in the assay on OVCAR-4 and in the assay on SK-MEL-5 was > 100 µM (inactive) in each case. For the same compound, the GI50 with K562, with NCI-H522, in the assay on OVCAR-3, in the assay with NCI/ADR-RES, in the assay with HL-60 and with UACC-257 was > 100 µM (inactive) each time. In addition, the GI50 with HCT-116, in the assay with A549, in the assay on HOP-62, with SF-539, in the assay on EKVX and in the assay on A498 was > 100 µM (inactive) each time. The GI50 in the assay on OVCAR-5 and in the assay on COLO 205 was > 100 µM (inactive) in each case.

Turning to `CN(Cc1cnc2nc(N)nc(N)c2n1)c1ccc(C(=O)NC(CCC(=O)NCCC(P(=O)(O)O)P(=O)(O)O)C(=O)O)cc1` (stereo not given), the GI50 was > 89.7 µM (inactive) in the assay on NCI-H226; 21.2 µM (inactive) in the assay on DU-145; > 100 µM (inactive) with HOP-92; 6.03 µM (inactive) with MDA-MB-435; > 100 µM (inactive) with OVCAR-4; 43.4 µM (inactive) in the assay with SK-MEL-5. Also, the GI50 with K562 was 1.47 µM (inactive); in the assay with NCI-H522, > 88.3 µM (inactive); in the assay on OVCAR-3 it was 37.2 µM (inactive); with NCI/ADR-RES, 21.5 µM (inactive); in the assay with HL-60 it was 4.12 µM (inactive); with UACC-257, > 100 µM (inactive). Further, the GI50 is 3.67 µM (inactive) with HCT-116; 11.6 µM (inactive) with A549; 52.6 µM (inactive) in the assay on HOP-62; 10.3 µM (inactive) in the assay with SF-539; 69.5 µM (inactive) in the assay with EKVX; 78 µM (inactive) in the assay on A498. Besides, the values for the GI50 in the assay with OVCAR-5 and in the assay on COLO 205 were 25.1 µM (inactive) and > 82.6 µM (inactive), respectively.

For the compound `CNC(=O)OCC1C2=C(C(=O)C(C)=C(N)C2=O)N2CC3C(N3C)C12OC` (stereo not given), the GI50 in the assay with NCI-H226 is 32.1 µM (inactive); in the assay on DU-145, 2.47 µM (inactive); in the assay on HOP-92, 23.7 µM (inactive); in the assay with MDA-MB-435, 38.1 µM (inactive); in the assay with OVCAR-4, 15.7 µM (inactive); in the assay on SK-MEL-5, 11.5 µM (inactive). Further, the GI50 in the assay with K562 is 25.6 µM (inactive); with NCI-H522 it was 3.19 µM (inactive); in the assay with OVCAR-3 it was 26.5 µM (inactive); in the assay with NCI/ADR-RES it was 32.5 µM (inactive); with HL-60, 1.92 µM (inactive); in the assay with UACC-257 it was 21.4 µM (inactive). The GI50 with HCT-116 was 10.9 µM (inactive); with A549 it was 1.83 µM (inactive); with HOP-62, 14.4 µM (inactive); in the assay with SF-539, 10.1 µM (inactive); in the assay with EKVX, > 100 µM (inactive); with A498 it was 15.3 µM (inactive). The GI50 in the assay with OVCAR-5 was 72.8 µM (inactive); with COLO 205, 13.6 µM (inactive).

As for `CCOC(=O)c1cc(NC(=O)c2ccccc2)c(=O)n2c(cc3c(Cl)cccc32)c1O`, the GI50 in the assay on NCI-H226, in the assay with DU-145, in the assay with HOP-92, with MDA-MB-435, in the assay with OVCAR-4 and in the assay on SK-MEL-5 was > 100 µM (inactive) throughout. Also, the GI50 in the assay with K562, in the assay on NCI-H522, in the assay on OVCAR-3, in the assay with NCI/ADR-RES, in the assay on HL-60 and in the assay with UACC-257 was > 100 µM (inactive) each time. For the same compound, the GI50 in the assay on HCT-116, in the assay with A549, with HOP-62, in the assay with SF-539, in the assay with EKVX and in the assay with A498 was > 100 µM (inactive) each time. Moreover, the GI50 in the assay with OVCAR-5 and in the assay with COLO 205 was > 100 µM (inactive) throughout.
